According to patent US10144742B2 (Millennium Pharmaceuticals, Inc., priority 2014, dated 2018):
Like-named read-outs stand apart in the source and are kept apart here.

Legend:
hNAMPT protein = hNAMPT protein (Homo sapiens (Human), UniProt P43490); test: NAMPT enzyme assay (TR-FRET/HTRF, BodiPY ligand, anti 6His-Tb); format: binding; details: for IC50: NAMPT IC50 range class, read-out: IC50; for inhibition at 1 µM: read-out: Percent Inhibition
Method in brief: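 Compound or DMSO was incubated for 1 h at room temperature, protected from light, with BodiPY ligand and hNAMPT labelled by terbium anti-6His antibody. The 520 nm to 486 nm emission ratio after 320 nm excitation gave inhibition versus vehicle, from which concentration-response curves yielded IC50.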

PC3 cells = test: PC3 growth inhibition (Cell-titer glo, 72 hours); format: cell-based; details: Homo sapiens, PC-3, PC3 cells, 72 hours, Cell-titer glo, read-out: Percent Inhibition (PC3 growth inhibition); for inhibition at 1 µM: compound concentration 1 μM; for inhibition at 1.667 µM: compound concentration 1.667 μM
Method in brief: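 Compounds in AIM serum-free medium were applied for 72 h at 37 °C, 5% CO2 to PC3 cells plated overnight from RPMI1640 culture. Luminescence after 10 min CellTiter-Glo, normalised to DMSO, gave % viability at 1 μM or 1.667 μM, or GI50/LD50.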

Sequence of hNAMPT protein (P43490 whole entry): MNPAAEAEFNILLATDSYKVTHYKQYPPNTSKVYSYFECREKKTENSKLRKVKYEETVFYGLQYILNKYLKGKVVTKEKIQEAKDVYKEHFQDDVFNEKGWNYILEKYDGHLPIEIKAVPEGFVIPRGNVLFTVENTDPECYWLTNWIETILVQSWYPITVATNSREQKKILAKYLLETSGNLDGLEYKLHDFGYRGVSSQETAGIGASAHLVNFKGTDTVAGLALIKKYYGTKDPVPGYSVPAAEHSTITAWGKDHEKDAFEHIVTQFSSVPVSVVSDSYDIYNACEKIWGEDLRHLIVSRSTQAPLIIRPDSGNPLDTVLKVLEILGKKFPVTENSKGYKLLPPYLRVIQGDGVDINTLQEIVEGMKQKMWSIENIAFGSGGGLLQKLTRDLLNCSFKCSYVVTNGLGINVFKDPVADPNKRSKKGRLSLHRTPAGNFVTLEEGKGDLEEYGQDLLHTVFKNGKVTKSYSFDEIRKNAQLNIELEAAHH

| SMILES | IC50 (hNAMPT protein) [nM] | inhibition at 1 µM (hNAMPT protein; compound concentration 1 μM) [%] | inhibition at 1 µM (PC3 cells) [%] | inhibition at 1.667 µM (PC3 cells) [%] | inhibition at 1 µM (hNAMPT protein) [%] |
| --- | --- | --- | --- | --- | --- |
| O=C(c1ccc2nc(-c3ccc(F)cc3)c(-c3ccc(F)cc3)nc2c1)N1CCOC(c2cccnc2)C1 (stereo not drawn) [Compound I-155, [2,3-bis(4-fluorophenyl)quinoxalin-6-yl][2-(pyridin-3-yl)morpholin-4-yl]methanone] | 2000 to 10000 | 12 | 103 |  |  |
| O=C(NCc1ccc2nccn2c1)c1ccc2nc(N3CCC(O)CC3)c(-c3ccc(F)cc3)nc2c1 [Compound I-156, 3-(4-Fluorophenyl)-2-(4-hydroxypiperidin-1-yl)-N-(imidazo[1,2-a]pyridin-6-ylmethyl)quinoxaline-6-carboxamide] | < 100 | 97 |  | 2 |  |
| N#Cc1cccc(-c2nc3cc(C(=O)NCCCn4ccnc4)ccc3nc2-c2ccccc2)c1 [Compound I-157, 3-(3-cyanophenyl)-N-[3-(1H-imidazol-1-yl)propyl]-2-phenylquinoxaline-6-carboxamide] | 1000 to 2000 | 40 | 2 |  |  |
| Cc1nc2ccc(C(=O)NCCCn3ccnc3)cc2nc1-c1ccccc1 [Compound I-158, N-[3-(1H-imidazol-1-yl)propyl]-2-methyl-3-phenylquinoxaline-6-carboxamide] | 1000 to 2000 | 42 | 0 |  |  |
| O=C(NCCCn1ccnc1)c1ccc2nc(N3CC4CC4C3)c(-c3ccccc3)nc2c1 (stereo not drawn) [Compound I-159, 2-(3-azabicyclo[3.1.0]hex-3-yl)-N-[3-(1H-imidazol-1-yl)propyl]-3-phenylquinoxaline-6-carboxamide] | 100 to 500 | 71 | -6 |  |  |
| O=C(NCCCn1ccnc1)c1ccc2nc(N3CCCCC3)c(-c3ccccc3)nc2c1 [Compound I-161, N-[3-(1H-imidazol-1-yl)propyl]-3-phenyl-2-(piperidin-1-yl)quinoxaline-6-carboxamide] | < 100 | 89 | -7 |  |  |
| O=C(NCCCn1ccnc1)c1ccc2nc(-c3ccccc3)c(C3=CCOCC3)nc2c1 [Compound I-162, 3-(3,6-dihydro-2H-pyran-4-yl)-N-[3-(1H-imidazol-1-yl)propyl]-2-phenylquinoxaline-6-carboxamide] | 1000 to 2000 | 44 | 1 |  |  |
| O=C(c1ccc2nc(-c3ccc(F)cc3)c(-c3ccc(F)cc3)nc2c1)N1CCC(c2ccccn2)C1 (stereo not drawn) [Compound I-163, [2,3-bis(4-fluorophenyl)quinoxalin-6-yl][3-(pyridin-2-yl)pyrrolidin-1-yl]methanone] | 2000 to 10000 | 17 | 86 |  |  |
| O=C(NCCc1nccs1)c1ccc2nc(-c3ccc(F)cc3)c(-c3ccc(F)cc3)nc2c1 [Compound I-164, 2,3-Bis(4-fluorophenyl)-N-[2-(1,3-thiazol-2-yl)ethyl]quinoxaline-6-carboxamide] | 100 to 500 |  | 101 |  | 83 |
| CN1CC=C(c2nc3ccc(C(=O)NCCCn4ccnc4)cc3nc2-c2ccccc2)CC1 [Compound I-165, N-[3-(1H-imidazol-1-yl)propyl]-2-(1-methyl-1,2,3,6-tetrahydropyridin-4-yl)-3-phenylquinoxaline-6-carboxamide] | 100 to 500 | 78 | -7 |  |  |
| O=C(NCCCn1ccnc1)c1ccc2nc(-c3ccccc3)c(N3CCCCC3)nc2c1 [Compound I-166, N-[3-(1H-imidazol-1-yl)propyl]-2-phenyl-3-(piperidin-1-yl)quinoxaline-6-carboxamide] | 2000 to 10000 | 31 | 5 |  |  |
| Cn1cc(-c2nc3cc(C(=O)NCCCn4ccnc4)ccc3nc2-c2ccccc2)cn1 [Compound I-167, N-[3-(1H-imidazol-1-yl)propyl]-3-(1-methyl-1H-pyrazol-4-yl)-2-phenylquinoxaline-6-carboxamide] | 2000 to 10000 | 24 | 1 |  |  |
| CC(=O)N1CCN(c2nc3cc(C(=O)NCCCn4ccnc4)ccc3nc2-c2ccccc2)CC1 [Compound I-168, 3-(4-Acetylpiperazin-1-yl)-N-[3-(1H-imidazol-1-yl)propyl]-2-phenylquinoxaline-6-carboxamide] | 100 to 500 | 84 | 1 |  |  |
| O=C(NCCc1ccccn1)c1ccc2nc(-c3ccc(F)cc3)c(-c3ccc(F)cc3)nc2c1 [Compound I-169, 2,3-bis(4-fluorophenyl)-N-[2-(pyridin-2-yl)ethyl]quinoxaline-6-carboxamide] | 1000 to 2000 | 36 | 93 |  |  |
| O=C(NCc1ccc2nccn2c1)c1ccc2nc(N3CCCCC3)c(-c3ccc(F)cc3)nc2c1 [Compound I-170] | < 100 | 98 |  | 2 |  |
| CCOC(=O)CCc1ccc(-c2nc3cc(C(=O)NCCCn4ccnc4)ccc3nc2-c2ccccc2)cc1 [Compound I-171, ethyl 3-[4-(7-{[3-(1H-imidazol-1-yl)propyl]carbamoyl}-3-phenylquinoxalin-2-yl)phenyl]propanoate] | 2000 to 10000 | 27 | 95 |  |  |
| COC1CN(c2nc3ccc(C(=O)NCCCc4ncc[nH]4)cc3nc2-c2ccc(F)cc2)C1 [Compound I-172, 3-(4-fluorophenyl)-N-[3-(1H-imidazol-2-yl)propyl]-2-(3-methoxyazetidin-1-yl)quinoxaline-6-carboxamide] | < 100 | > 99 |  | 2 |  |
| O=C(NCCn1ccnc1)c1ccc2nc(N3CCC(C4CCNCC4)CC3)c(-c3ccccc3)nc2c1 [Compound I-173, 2-(4,4′-bipiperidin-1-yl)-N-[2-(1H-imidazol-1-yl)ethyl]-3-phenylquinoxaline-6-carboxamide] | 100 to 500 | 83 | -1 |  |  |
| O=C(NCCCn1ccnc1)c1ccc2nc(-c3ccccc3)c(-c3ccsc3)nc2c1 [Compound I-174, N-[3-(1H-imidazol-1-yl)propyl]-2-phenyl-3-(3-thienyl)quinoxaline-6-carboxamide] | 100 to 500 | 89 | 1 |  |  |
| O=C(NCCCn1ccnc1)c1ccc2nc(-c3ccccc3)c(N3CCC3)nc2c1 [Compound I-175, 3-(azetidin-1-yl)-N-[3-(1H-imidazol-1-yl)propyl]-2-phenylquinoxaline-6-carboxamide] | 2000 to 10000 | 20 | 95 |  |  |
| O=C(NCCCn1ccnc1)c1ccc2nc(-c3ccccc3)c(-c3cccnc3)nc2c1 [Compound I-176, N-[3-(1H-imidazol-1-yl)propyl]-2-phenyl-3-(pyridin-3-yl)quinoxaline-6-carboxamide] | 1000 to 2000 | 46 | 1 |  |  |
| Cn1cncc1CCNC(=O)c1ccc2nc(N3CCOCC3)c(-c3ccc(F)cc3)nc2c1 [Compound I-177, 3-(4-fluorophenyl)-N-[2-(1-methyl-1H-imidazol-5-yl)ethyl]-2-(morpholin-4-yl)quinoxaline-6-carboxamide] | 100 to 500 | 77 |  | 2 |  |
